Reference: ChEMBL document CHEMBL4806969, “Modulators of mas-related g-protein receptor x4 and related products and methods” (2020)

How the values were obtained:
[1] = target: Mas-related G-protein coupled receptor member X4 (Homo sapiens, UniProt Q96LA9); assay: Antagonist activity at human MRGPRX4 expressed in HEK cells incubated in dark for 1 hr at 37 degree C and then incubated for 30 mins at room temperature in presence of […] bilirubin by HTRF assay; assay type: functional, cell-based
[2] = AUC in C57BL/6 mouse at 50 mg/kg, po measured upto 24 hrs by LC-MS/MS analysis; assay type: ADME, organism-based; set-up: route oral, dose 50 mg/kg, time <=24; details: in vivo
[3] = Half life in C57BL/6 mouse at 50 mg/kg, po measured upto 24 hrs by LC-MS/MS analysis; assay type: ADME, organism-based; details: in vivo

Sequence of Mas-related G-protein coupled receptor member X4 (Q96LA9 whole entry): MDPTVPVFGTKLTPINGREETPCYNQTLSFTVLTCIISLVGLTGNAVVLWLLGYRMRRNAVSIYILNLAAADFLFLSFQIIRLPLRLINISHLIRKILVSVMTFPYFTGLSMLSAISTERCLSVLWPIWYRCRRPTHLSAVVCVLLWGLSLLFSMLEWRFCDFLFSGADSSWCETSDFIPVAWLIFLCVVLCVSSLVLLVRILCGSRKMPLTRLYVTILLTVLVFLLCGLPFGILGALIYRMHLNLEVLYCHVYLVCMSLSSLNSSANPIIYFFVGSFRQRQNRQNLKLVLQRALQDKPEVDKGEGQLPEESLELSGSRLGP

| Compound | IC50 [1] [nM] | AUC at 24 h [2] [µM·h] | half-life [3] [min] |
| --- | --- | --- | --- |
| O=C(O)c1cccc(COc2ccc(OC(F)(F)F)cc2Cl)c1F | < 100 |  |  |
| O=C(O)c1cccc(COc2ccc(OC(F)(F)F)cc2Cl)n1 | < 100 |  |  |
| O=C(O)c1cccc(COc2ccc(Cl)c(Cl)c2F)c1 | < 100 |  |  |
| O=C(O)c1cc(Br)cc(COc2ccc(C(F)(F)F)cc2Cl)c1 | < 100 |  |  |
| O=C(O)c1cccc(COc2ccc3sccc3c2Cl)c1F | < 100 |  |  |
| Cc1cc(COc2ccc3ccccc3c2)cc(C(=O)O)c1 | < 100 |  |  |
| O=C(O)c1cccc(COc2ccc(C(F)(F)F)cc2F)c1 | < 100 |  |  |
| Fc1cc(COc2ccc(C(F)(F)F)cc2Cl)cc(-c2nnn[nH]2)c1 | < 100 |  |  |
| FC(F)(F)c1ccc(OCc2cccc(-c3nnn[nH]3)n2)c(Cl)c1 | < 100 |  |  |
| O=C(O)c1c(F)ccc(COc2ccc(C(F)(F)F)cc2Cl)c1F | < 100 |  |  |
| Fc1c(COc2ccc(C(F)(F)F)cc2Cl)cccc1-c1nnn[nH]1 | < 100 |  |  |
| Cc1cc(OCc2cccc(C(=O)O)c2)ccc1OC(F)(F)F | > 2500 |  |  |
| COCCCNC(=O)c1cccc(COc2ccc(C(F)(F)F)cc2Cl)c1 | < 100 |  |  |
| O=C(c1ccc(COc2ccc(C(F)(F)F)cc2Cl)cc1)N1CC2(COC2)C1 | < 2500 |  |  |
| O=C(O)c1cccc(COc2ccc(C(F)(F)F)cc2)c1F | < 100 |  |  |
| O=C(O)c1cccc(COc2cccc(C(F)F)c2)c1 | > 2500 |  |  |
| O=C(O)c1cccc(COc2ccc(Cl)cc2Cl)c1Cl | < 100 |  |  |
| Cc1cc(COc2ccc(C(F)(F)F)cc2Cl)nc(C(=O)O)c1 | < 100 |  |  |
| N#Cc1cc(COc2ccc(C(F)(F)F)cc2Cl)nc(C(=O)O)c1 | < 100 |  |  |
| O=C(O)c1cc(C2CC2)cc(COc2ccc(C(F)(F)F)cc2Cl)n1 | < 100 |  |  |
| CCOC(=O)c1cccc(COc2ccc(C(F)(F)F)cc2Cl)n1 | < 100 |  |  |
| CC(C)(C)c1ccccc1OCc1cccc(C(=O)O)c1 | > 2500 |  |  |
| O=C(O)c1cccc(COc2ccc(OC(F)(F)F)cc2Cl)c1 | < 100 |  |  |

| Compound | IC50 [1] [nM] | AUC at 24 h [2] [µM·h] | half-life [3] [min] |
| --- | --- | --- | --- |
| O=C(O)c1cccc(COc2ccc(Cl)c(F)c2)c1 | < 100 |  |  |
| FC(F)(F)c1ccc(OCc2cccc(-c3nnn[nH]3)c2)cc1Cl | < 100 |  |  |
| Fc1cc(OCc2cccc(-c3nnn[nH]3)c2)ccc1C(F)(F)F | < 100 |  |  |
| N#Cc1ccc(OCc2cccc(C(=O)O)c2)cc1 | > 2500 |  |  |
| O=C(O)c1cccc(COc2ccccc2Cl)c1 | > 2500 |  |  |
| O=C(O)c1cccc(CNc2ccc(C(F)(F)F)cc2Cl)c1 | < 100 |  |  |
| O=C(O)c1cccc(COc2ccc(C(F)(F)F)c(Cl)c2)c1F | < 100 |  |  |
| O=C(O)c1cccc(COc2ccc(C(F)(F)F)c(Cl)c2)n1 | < 100 |  |  |
| O=C(O)Cc1cccc(COc2ccc(Cl)cc2Cl)c1 | > 2500 |  |  |
| O=C(O)c1cccc(COc2ccc(C(F)(F)F)cc2Cl)c1F | < 100 | 2150 | 672 |
| O=C(O)c1cccc(COc2ccc(Oc3ccccc3)cc2)c1 | > 2500 |  |  |
| O=C(O)c1cccc(COc2ccc(Cl)cc2Cl)n1 | < 100 | 1210 | 180 |
| O=C(O)c1cccc(COc2ccc3ccccc3c2)n1 | < 100 |  |  |
| Fc1ccc(COc2ccc(C(F)(F)F)cc2Cl)cc1-c1nnn[nH]1 | < 100 |  |  |
| O=C(O)c1cccc(COc2ccc(Cl)cc2C(F)(F)F)c1F | < 100 |  |  |
| Cc1cc(COc2ccc(Cl)cc2Cl)cc(C(=O)O)c1 | < 100 |  |  |
| COC(=O)c1cccc(COc2ccc3scnc3c2)c1 | > 2500 |  |  |
| O=C(O)c1cccc(COc2ccc3ccccc3c2)c1F | < 100 |  |  |
| CC(Oc1ccc(C(F)(F)F)cc1Cl)c1cccc(C(=O)O)c1 (stereo unspecified) | < 100 |  |  |
| Cc1cc(C(F)(F)F)ccc1OCc1cc(F)cc(C(=O)O)c1 | < 100 |  |  |
| Cc1cc(C(F)(F)F)ccc1OCc1cccc(-c2nnn[nH]2)c1 | < 100 |  |  |
| O=C(O)c1cccc(COc2ccccc2C(F)F)c1 | > 2500 |  |  |
| Cc1cc(C(F)(F)F)ccc1OCc1cccc(C(=O)O)c1 | < 100 |  |  |

| Compound | IC50 [1] [nM] | AUC at 24 h [2] [µM·h] | half-life [3] [min] |
| --- | --- | --- | --- |
| O=C(O)c1cccc(COc2ccc(C(F)F)cc2Cl)c1 | < 100 |  |  |
| c1cc(COc2ccc3ccccc3c2)cc(-c2nnn[nH]2)c1 | < 100 |  |  |
| O=C(O)c1cccc(COc2cccc3c2OC(F)(F)O3)c1 | > 2500 |  |  |
| O=C(O)c1nc(COc2ccc(C(F)(F)F)c(Cl)c2)ccc1F | < 100 |  |  |
| CCCc1cc(COc2ccc(C(F)(F)F)cc2Cl)nc(C(=O)O)c1 | < 100 |  |  |
| O=C(O)c1cc(Cl)cc(COc2ccc(Cl)cc2Cl)c1 | < 100 |  |  |
| COC(=O)c1cccc(COc2ccc(Cl)cc2Cl)c1 | > 2500 |  |  |
| O=C(O)c1cc(F)cc(COc2ccc(Cl)cc2Cl)c1 | < 100 |  |  |
| NC(=O)c1cccc(COc2cccc(Cl)c2Cl)c1 | > 2500 |  |  |
| O=C(O)c1cccc(COc2ccc(-c3ccccc3)cc2)c1 | > 2500 |  |  |
| O=C(O)c1cccc(COc2ccc(C(F)(F)F)cc2Cl)n1 | < 100 | 880 | 192 |
| Cc1cc(COc2ccc(C(F)(F)F)cc2C)cc(C(=O)O)c1 | < 100 | 572 | 216 |
| O=C(O)c1cccc(COc2ccc(Cl)c(Cl)c2Cl)c1F | < 100 |  |  |
| N#Cc1cc(COc2ccc(Cl)c(Cl)c2Cl)cc(C(=O)O)c1 | < 100 |  |  |
| Cc1cc(C(F)(F)F)ccc1OCc1cccc(C(=O)O)n1 | < 100 |  |  |
| O=C(O)c1cc(COc2ccc(C(F)(F)F)cc2Cl)cc(C2CC2)c1 | < 100 |  |  |
| O=C(O)c1cccc(COc2ccc3c(c2)CCC3=O)c1 | > 2500 |  |  |
| COc1cc(COc2ccc(C(F)(F)F)cc2Cl)cc(C(=O)O)c1 | < 100 |  |  |
| O=C(O)c1cc(Br)cc(COc2ccc(C(F)(F)F)cc2Cl)n1 | < 100 |  |  |
| Cc1ccc(OCc2cccc(C(=O)O)c2)c(Cl)c1Cl | < 100 |  |  |
| COC(=O)c1cccc(COc2ccc(C(F)(F)F)cc2Cl)n1 | < 100 |  |  |
| Cc1ccc(COc2ccc(Cl)cc2Cl)cc1C(=O)O | > 2500 |  |  |
| O=C(O)c1cccc(COc2ccc(OC(F)(F)F)c(Cl)c2)c1 | < 100 |  |  |

| Compound | IC50 [1] [nM] | AUC at 24 h [2] [µM·h] | half-life [3] [min] |
| --- | --- | --- | --- |
| Cc1cc(COc2ccc(C(F)(F)F)cc2Cl)cc(C(=O)O)c1 | < 100 | 974 | 276 |
| O=C(O)c1cccc(NC(=O)c2cccc(COc3ccc(C(F)(F)F)cc3Cl)c2)c1 | > 2500 |  |  |
| FC(F)(F)Oc1ccc(OCc2cccc(-c3nnn[nH]3)c2)c(Cl)c1 | < 100 |  |  |
| Cc1cc(COc2ccc(OC(F)(F)F)cc2Cl)cc(C(=O)O)c1 | < 100 |  |  |
| O=C(O)c1cc(F)cc(COc2ccc(C(F)(F)F)cc2Cl)c1 | < 100 | 1040 | 288 |
| CCc1cc(COc2ccc3ccccc3c2)nc(C(=O)O)c1 | < 100 |  |  |
| Cc1cc(C(F)(F)F)ccc1OCc1cc(C#N)cc(C(=O)O)c1 | < 100 |  |  |
| COc1ccc(C(=O)O)cc1COc1ccc(Cl)cc1Cl | > 2500 |  |  |
| O=C(O)c1cccc(Oc2ccc([N+](=O)[O-])cc2Cl)c1 | > 2500 |  |  |
| O=C(O)c1cccc(COc2ccc3c(c2)C(=O)CCC3)c1 | > 2500 |  |  |
| O=C(O)c1cccc(COc2ccc(Cl)cc2Cl)c1F | < 100 | 1500 | 354 |
| O=C(O)c1cccc(COc2ccccc2Cl)c1F | > 2500 |  |  |
| O=C(O)c1cccc(COc2ccc(C(F)(F)F)c(F)c2)c1 | < 100 |  |  |
| Cc1cc(COc2ccc(C(F)(F)F)c(Cl)c2)cc(C(=O)O)c1 | < 100 |  |  |
| N#Cc1cc(COc2ccc(OC(F)(F)F)cc2Cl)cc(C(=O)O)c1 | < 100 |  |  |
| Cc1noc(-c2cccc(COc3ccc(C(F)(F)F)cc3Cl)c2)n1 | < 2500 |  |  |
| O=C(O)c1cccc(COc2ccc3ccccc3c2Cl)c1F | < 100 |  |  |
| Cc1cc(CNc2ccc(C(F)(F)F)cc2Cl)nc(C(=O)O)c1 | < 100 |  |  |
| Cc1cc(OCc2cccc(C(=O)O)c2)ccc1C(F)(F)F | > 2500 |  |  |
| O=C(O)c1nc(COc2ccc(C(F)(F)F)cc2Cl)ccc1F | < 100 |  |  |
| O=C(O)CNC(=O)c1cccc(COc2ccc(C(F)(F)F)cc2Cl)c1 | < 100 |  |  |
| Cc1cc(COc2ccc(Cl)c(Cl)c2Cl)nc(C(=O)O)c1 | < 100 |  |  |
| COc1cc(COc2ccc(Cl)cc2Cl)cc(C(=O)O)c1 | < 100 |  |  |

| Compound | IC50 [1] [nM] | AUC at 24 h [2] [µM·h] | half-life [3] [min] |
| --- | --- | --- | --- |
| Cc1cc(Cl)ccc1OCc1cccc(-c2nnn[nH]2)c1 | < 100 |  |  |
| O=C(O)c1cccc(COc2ccc(C(F)(F)F)cc2Br)c1 | < 100 |  |  |
| COC(=O)c1cccc(COc2ccc3ccccc3c2)n1 | < 100 |  |  |
| O=C(O)c1cccc(COc2ccc(F)cc2Cl)c1 | > 2500 |  |  |
| O=C(O)c1cccc(COc2c(Cl)cccc2Cl)c1 | > 2500 |  |  |
| N#Cc1cc(COc2ccc(C(F)(F)F)c(Cl)c2)cc(C(=O)O)c1 | < 100 |  |  |
| Cc1cc(COc2ccc3ccccc3c2)nc(C(=O)O)c1 | < 100 |  |  |
| CC(C)c1ccccc1OCc1cccc(C(=O)O)c1 | > 2500 |  |  |
| O=C(O)c1cccc(COc2ccc(C(F)(F)F)cc2C(F)(F)F)c1 | < 100 |  |  |
| N#Cc1cc(COc2ccc(C(F)(F)F)cc2Cl)cc(C(=O)O)c1 | < 100 |  |  |
| O=C(O)c1cc(COc2ccc(C(F)(F)F)cc2Cl)ccc1F | < 100 | 1070 | 282 |
| CC(=O)c1ccc(OCc2cccc(C(=O)O)c2)cc1 | > 2500 |  |  |
| O=C(O)c1cc(F)cc(COc2ccc3ccccc3c2)c1 | < 100 |  |  |
| Cc1cc(Cl)ccc1OCc1cccc(C(=O)O)c1F | < 100 |  |  |
| FC(F)(F)Oc1ccc(OCc2cccc(-c3nnn[nH]3)c2)cc1Cl | < 100 |  |  |
| O=C(O)c1cc(F)cc(COc2ccc(Cl)c(Cl)c2Cl)c1 | < 100 |  |  |
| O=C(O)c1cccc(CNc2ccc(C(F)(F)F)cc2Cl)n1 | < 100 |  |  |
| CCc1cc(COc2ccc(Cl)c(Cl)c2Cl)nc(C(=O)O)c1 | < 100 |  |  |
| N#CCc1ccccc1OCc1cccc(C(=O)O)c1 | > 2500 |  |  |
| Fc1ccc(OCc2cccc(-c3nnn[nH]3)c2)c(Cl)c1 | < 100 |  |  |
| O=C(O)c1cccc(COc2ccc(OC(F)(F)F)c(Cl)c2)n1 | < 100 |  |  |
| O=C(O)c1cc(Cl)cc(COc2ccc(C(F)(F)F)cc2Cl)c1 | < 100 |  |  |
| O=C(O)c1cccc(COc2ccc(Cl)c(F)c2Cl)c1 | < 100 |  |  |
